The subject of data set [1] is human BxPC-3 pancreatic carcinoma tumours. Nature of the data set: Primary tumor growth assay, BxPC-3 tumours in BalbC nude mice. It is filed as in vivo, mouse. The note with it: for tumour doubling time: subcutaneous micro-osmotic pump, 28 day. On the procedure:
Female 7 to 9 week old Balb C nude mice were used (UNSW Biological Resource Centre). Mice were held in groups of 3 to 5 at a 12 h day and night cycle and were given animal chow and water ad libidum. A suspension of 2×10^6 BxPC-3 cells in 0.2 mL of PBS was injected subcutaneously in the proximal midline. Tumors were allowed to establish and grow to a size of ˜50 mm^3 after which they were randomized into four groups. Tumor volume was calculated using the relationship length×height×width×0.523. Tumor doubling time (TD) was calculated from the tumor growth rate curve during exponential growth using the formula […], where VF is final tumor volume and VI is initial tumor volume (Wolff et al., 2004). Animals were implanted with 28 day alzet model 1004 micro-osmotic pumps (ALZA Corporation, Palo Alto, Calif.) subcutaneously in the flank. The pumps delivery 0.25, 0.5 or 1 mg/kg/day (S)-Penicillamine arsenoxide in 100 mM glycine. Tumor volume and animal weight was measured every 2 or 3 days.
BalbC nude mice bearing subcutaneous human BxPC-3 pancreatic carcinoma tumours in the proximal midline were implanted with 28 day micro-osmotic alzet pumps subcutaneously in the flank. The pumps delivered 0.25, 0.5 or 1 mg per kg per day (S)-Penicillamine arsenoxide. […] The tumour doubling times are 9.2, 8.3, 13.9 and 16.2 days for groups treated with vehicle (100 mM glycine) or 0.25, 0.5 and 1 mg/kg/day (S)-Penicillamine arsenoxide, respectively.

For a further data set, the system named is BAE cells. The data set is described as follows: BAE proliferation with glutathione depletion by BSO. It is filed as cell-based, bovine. The note with it: BAE cells co-treated with BSO, 72 h. On the procedure: FIG. 12. Depletion of cellular glutathione increases (S)-Penicillamine-arsenoxide anti-proliferative activity. BAE cells were co-treated with (S)-Penicillamine-arsenoxide and the indicated concentrations of BSO for 72 h and the IC50 for proliferation arrest was calculated.
Treatment of BAE cells with glutathione reduced GSAO inhibition of BAE cell proliferation, while blocking de novo synthesis of glutathione with buthionine sulfoximine (BSO), an inhibitor of the γ-glutamyl cysteine synthase, enhanced the proliferation arrest by almost 100-fold (Dilda et al., 2005b).

Data set [2] relates to K562 cells (chronic myelogenous leukaemia). The data set is described as follows: K562 cell proliferation assay (MTT, 72 h). It is filed as cell-based. The note with it: K562, human chronic myelogenous leukaemia; read-out: IC50 for proliferation arrest. How it is done: (§1) BAE cells were from Cell Applications, San Diego, Calif. and BxPC-3, HT1080, LLC, PANC-1, MCF-7, HCT116 and K562 cells were from ATCC, Bethesda, Md. NB4 and MDCK2 cells were from Shane Supple (Kanematsu Laboratories, Royal Prince Alfred Hospital, Sydney, Australia) and P. Borst (The Netherlands Cancer Institute, Amsterdam, The Netherlands). BAE, HT1080, Panc-1, MCF-7, HCT116, MDCK2 and LLC cells were cultured in DMEM. NB4, K562 and BxPC-3 cells were cultured in RPMI medium. The cells were supplemented with 10% foetal calf serum (FBS), 2 mM L-glutamine, and 1 U·mL-1 penicillin/streptomycin. Cell culture plasticware was from Techno Plastic Products (Trasadingen, Switzerland). All other cell culture reagents were from Gibco (Gaithersburg, Md.).
(§2) Adherent cells were allowed to adhere overnight.

Data set [3] deals with MDCK2 cells (kidney epithelial). The data set is described as follows: MDCK2 cell proliferation assay (MTT, 72 h). The data set is classed as cell-based, dog. On the procedure: as §1, §2
The test system of data set [4] is HT1080 cells (fibrosarcoma). The data set is described as follows: HT1080 cell proliferation assay (MTT, 72 h). The data set is classed as cell-based. The note with it: HT1080, human fibrosarcoma; read-out: IC50 for proliferation arrest. How it is done:
as §1, §2

For data set [5], the system named is BxPC-3 cells (pancreatic carcinoma). Nature of the data set: BxPC-3 cell proliferation assay (MTT, 72 h). It is filed as cell-based. The settings on record: BxPC-3, human pancreatic carcinoma; read-out: IC50 for proliferation arrest. On the procedure:
as §1, §2

pIC50: −log10 of the molar value.

With `CC(C)(SCC(=O)Nc1ccc([As](O)O)cc1)[C@@H](N)C(=O)O` [(S)-Penicillamine-arsenoxide, 4-(N—(S-penicillaminylacetyl)amino)phenylarsinous acid], the results for the tumour doubling time in data set [1] (0.25 mg/kg/day), in data set [1] (0.5 mg/kg/day) and in data set [1] (1 mg/kg/day) were 8.3 days, 13.9 days and 16.2 days, respectively. The “growth of the BxPC-3 tumours” value in data set [1] (0.25, 0.5 or 1 mg per kg per day) was “significantly inhibited”. The “accumulation of connective tissue, mice affected” value in data set [1] (highest dose animals) was 1 mouse. For the same compound, in data set [1] (highest dose animals), the “skin necrosis at the delivery site, mice affected” value is recorded as 3 of the 10. In data set [1] (highest dose animals (1 mg/kg/day)), the “skin toxicity at pump delivery site” value is reported as “some skin toxicity at the pump delivery site”. The “findings at delivery site at the lower doses” value in data set [1] (lower doses) was “some evidence of accumulation of connective tissue at the delivery site in the occasional mouse”. In data set [1] (not shown), the “animal weight versus vehicle” value is “no change in the weight”. The “enhancement of IC50 for proliferation arrest by BSO” value in the data set on BAE cells was “approximately 25 fold”. Also, the pIC50 in data set [2] is 5.85; in data set [3] (MDCK2, dog kidney epithelial, read-out: IC50 for proliferation arrest) it was 5.62; in data set [4], 5.40; in data set [5], 4.89. Further, the “sensitivity of BAE cells relative to kidney epithelial cells” value in data set [3] (BAE vs MDCK2) turned out to be 5.6 fold.

The record behind these values is patent US9765101B2, “Organo-arsenoxide compounds and use thereof” (NewSouth Innovations Pty Limited, priority 2006, dated 2017).
